Data as given in US10525064B2, “Anticancer adjuvant containing panaxadiol ginsenocide compound” (priority 2015, dated 2020).
Values after ≈ are worked out from the molar mass of the structure shown.

Columns and labels:
MCF-7 cells [1] = assay: WST-1 viability assay, PPD-type ginsenoside compounds alone; format: cell-based, human; settings: 0-200 μg/mL, 24 hours, FIG. 1
Method: First, MCF-7 cells, a human breast cancer cell line, were inoculated into DMEM medium containing 10% FBS and 1% penicillin/streptomycin, cultured in conditions of 5% CO2 and 37° C. When the cultured MCF-7 cells were saturated the cells were sub-cultured at intervals of 3 days to 5 days.
Then, the cultured MCF-7 cells were treated with various concentrations (0 μg/mL, 5 μg/mL, 10 μg/mL, 20 μg/mL, 50 μg/mL, 100 μg/mL, or 200 μg/mL) of PPD-type ginsenoside compounds (F2, Rh2, C-K, or PPD) for 24 hours, and the viability of these cells was measured by performing WST-1 assay on the MCF-7 cells (FIG. 1). In particular, WST-1 assay was performed by inoculating each of the MCF-7 cells in a medium containing 10% EZ-Cytox and reacting at 37° C. for 1.5 hours. The level of water-soluble formazan dye produced by the viable cells was measured by absorbance at 450 nm and the results were analyzed to calculate the cell viability of the cells.

MCF-7 cells [2] = assay: WST-1 viability assay, ginsenoside pretreatment followed by doxorubicin or tamoxifen; format: cell-based; settings: for effect on anticancer activity of doxorubicin: then doxorubicin 5 μg/mL 24 hours, FIG. 2A; for anticancer activity of doxorubicin with ginsenoside compared to doxorubicin alone: ginsenoside 10 μg/mL, doxorubicin 0-50 μg/mL
Method: Specifically, each of the PPD-type ginsenoside compounds (F2, Rh2, C-K, or PPD) at a concentration of 10 μg/mL was added to MCF-7 cells, cultured for 12 hours, and treated with 20 μM tamoxifen or doxorubicin (5 μg/mL) and cultured for 24 hours. Upon completion of the cultivation, the viability of MCF-7 cells was compared by WST-1 assay (FIG. 2A).
In this regard, to determine whether the C-K or PPD affects the treatment concentration of doxorubicin, the PPD-type ginsenoside compound (C-K or PPD) was added to the MCF-7 cells at a concentration of 10 μg/mL and cultured for 12 hours. Then, the MCF-7 cells were treated with doxorubicin at various concentrations (0 μg/mL, 0.1 μg/mL, 0.5 μg/mL, 1 μg/mL, 2 μg/mL, 5 μg/mL, 10 μg/mL, and 50 μg/mL) and cultured for 24 hours. Upon completion of the culture, the viability of the MCF-7 cells and the LC50 values calculated therefrom were compared by WST-1 assay (FIG. 2B).

[3] = test system: phosphorylated JNK, cleaved-PARP, cleaved-caspase-9 in MCF-7 cells; assay: Western blot of apoptosis-related proteins; format: cell-based, human; settings: for level of cleaved-caspase-9 / levels of phosphorylated JNK and cleaved-PARP: ginsenoside 10 μg/mL with doxorubicin 5 μg/mL
Method: MCF-7 cells were charged with a medium containing C-K or PPD (10 μg/mL) and cultured for 12 hours, and the medium was replaced with a medium containing C-K or PPD (10 μg/mL) and doxorubicin (0 μg/mL or 5 μg/mL) and cultured for 24 hours. The cells, upon completion of culture, were disrupted and western blot analyses were performed treated with respect to anti-phosphorylated JNK antibody, anti-PARP antibody, anti-cleaved-PARP antibody, and anti-caspase-9 antibody or anti-cleaved-caspase-9 antibody (FIG. 3A).
Accordingly, MCF-7 cells were charged with a medium containing PPD (10 μg/mL) and cultured for 12 hours, and the medium was replaced with a medium containing PPD (10 μg/mL) and doxorubicin (5 μg/mL) and cultured for 0 hours, 0.5 hours, 1 hour, 2 hours, 4 hours, or 6 hours. The same western blot analysis was performed using the cultured cells (FIG. 3B). In particular, as a comparative group, cells cultured in a medium containing doxorubicin alone were used instead of the medium containing PPD and doxorubicin.

MCF-7 cells [4] = assay: Anticancer activity with PARP inhibitor or caspase-9 inhibitor pretreatment; format: cell-based, human; settings: FIG. 3C; for anticancer activity with PARP activity inhibitor, ginsenoside and doxorubicin treated simultaneously: 3-AB pretreatment, ginsenoside 10 μg/mL, doxorubicin 5 μg/mL
Method: Specifically, a medium containing C-K or PPD (10 μg/mL) was added to MCF-7 cells pretreated with Z-LEHD-FMK (i.e., an inhibitor of caspase-9) or 3-AB (i.e., an inhibitor of PARP) and cultured for 12 hours. The medium was then replaced with a medium containing doxorubicin (0 μg/mL or 5 μg/mL) and cultured for 24 hours. The same western blot analysis was performed using the cultured cells (FIG. 3C).

[5] = test system: cytochrome-C release in MCF-7 cells; assay: Cytochrome-C release from mitochondria, immunofluorescent staining; format: cell-based, human; settings: for level of cytochrome-C release compared to doxorubicin treatment alone: then doxorubicin 5 μg/mL 4 hours; for cells in which cytochrome-C was released, of the entire cells: 6 hours after the treatment, FIG. 4B
Method: MCF-7 cells were charged with a medium containing C-K or PPD (10 μg/mL) and cultured for 24 hours, and the medium was replaced with a medium containing doxorubicin (5 μg/mL) and cultured for 0 hours or 4 hours. The cells, upon completion of culture, were fixed with 4% paraformaldehyde, perforated by adding 0.5% Triton X-100 solution thereto, and the cells were immunostained with anti-cytochrome-C antibody for 30 minutes. Upon completion of the staining, the cells were washed with PBS, reacted with fluorescently-labeled secondary antibody for 30 minutes, washed with PBS, and then photographed using a confocal microscope to measure the levels of fluorescence developed (FIG. 4A).
In this regard, the present inventors have attempted to confirm whether the level of cytochrome-C release can be changed by the treatment time of doxorubicin. That is, the immunostaining was performed in the same manner as described above, except that MCF-7 cells were charged with a medium containing C-K or PPD (10 μg/mL) and cultured for 24 hours, and the medium was replaced with a medium containing doxorubicin (5 μg/mL), and the cells which were cultured for 0 hours, 0.5 hours, 1 hour, 2 hours, 4 hours, or 6 hours were used. Then, the number of cells in which cytochrome-C was released from mitochondria to cytoplasm was measured (FIG. 4B). In particular, an experimental group not treated with ginsenoside was used as a control.

[6] = test system: mitochondria of MCF-7 cells; assay: Mitochondria immunostaining with anti-Tom-20 antibody; format: cell-based, human; settings: ginsenoside 10 μg/mL, 24 hours, FIG. 5A
Method: That is, MCF-7 cells were charged with a medium containing C-K or PPD (10 μg/mL) and cultured for 24 hours. The cells, upon completion of culture, were fixed with 4% paraformaldehyde, perforated by adding 0.5% Triton X-100 solution thereto, and mitochondria of the cells were immunostained with anti-Tom-20 antibody. Upon completion of staining, the cells were washed with PBS and then photographed using a confocal microscope to measure the levels of fluorescence developed (FIG. 5A).

[7] = test system: Drp1, Fis1, OPA-3, Mfn1, Mfn2, OPA1 in MCF-7 cells; assay: Western blot of mitochondrial fission and fusion proteins; format: cell-based, human; settings: ginsenoside 10 μg/mL, 24 hours, FIG. 5B
Method: Accordingly, western blot analysis was performed with respect to each of the cultured cells and the expression levels of the proteins (Drp1, Fis1, and OPA-3) involved in mitochondrial fission and those of the proteins (Mfn1, Mfn2, and OPA1) involved in mitochondrial fusion were compared (FIG. 5B).

MCF-7 cells [8] = assay: WST-1 viability assay in siRNA-treated cells with doxorubicin or tamoxifen; format: cell-based, human; settings: 5 μM doxorubicin or 20 μM tamoxifen, 24 hours, FIG. 6B; for change of anticancer activity where mitochondrial fission was induced by Mfn1 or Mfn2 siRNA: Mfn2 versus Mfn1 inhibition; for anticancer activity (viability of MCF-7 cells): siRNA-introduced cells
Method: Meanwhile, each of the synthesized siRNAs was introduced into MCF-7 cells and cultured for 12 hours. The cells were cultured further for 48 hours in a normal medium containing no siRNA, treated with 5 μM doxorubicin or 20 μM tamoxifen, and cultured for 24 hours. Upon completion of culture, the viability of the MCF-7 cells was compared by WST-1 assay (FIG. 6B). In particular, an experimental group not treated with doxorubicin or tamoxifen was used as a control.

[9] = ginsenoside 10 μg/mL 24 hours, FIG. 4A
[10] = ginsenoside 10 μg/mL 24 hours, then doxorubicin 5 μg/mL

| Structure (SMILES) | anticancer activity (viability of MCF-7 cells) (MCF-7 cells [1]) | effect on anticancer activity of doxorubicin (MCF-7 cells [2]; ginsenoside 10 μg/mL 12 hours) | anticancer activity of doxorubicin with ginsenoside compared to doxorubicin alone (MCF-7 cells [2]; FIG. 2B) | level of cleaved-caspase-9 ([3]; 24 hours, FIG. 3A) | levels of phosphorylated JNK and cleaved-PARP ([3]; 24 hours, FIG. 3A) | anticancer activity with PARP activity inhibitor, ginsenoside and doxorubicin treated simultaneously (MCF-7 cells [4]) | level of cytochrome-C release compared to doxorubicin treatment alone [5, 9] | cells in which cytochrome-C was released, of the entire cells [5, 10] [%] | mitochondrial damage [6] | expression level of Mfn2 (mitochondrial fusion protein) [7] | expression level of OPA-3 (mitochondrial fission protein) [7] | change of anticancer activity where mitochondrial fission was induced by Mfn1 or Mfn2 siRNA (MCF-7 cells [8]) | anticancer activity (viability of MCF-7 cells) (MCF-7 cells [8]) | other results |
| --- | --- | --- | --- | --- | --- | --- | --- | --- | --- | --- | --- | --- | --- | --- |
| CC(C)=CCC[C@](C)(O[C@@H]1OC(CO)[C@@H](O)C(O)C1O)C1CC[C@]2(C)C1[C@H](O)CC1[C@@]3(C)CCC(O)C(C)(C)C3CC[C@]12C (stereo partly shown) [C-K, compound-K] | relatively excellent anticancer activity | could enhance the anticancer activity of doxorubicin | increased | significantly increased | not affected | slightly recovered | increased the level of cytochrome-C release | 20 | damage was observed | decreased | increase |  |  |  |
| CC(C)=CCC[C@](C)(O[C@@H]1O[C@H](CO)[C@@H](O)[C@H](O)[C@H]1O)[C@H]1CC[C@]2(C)[C@@H]1[C@H](O)C[C@@H]1[C@@]3(C)CC[C@H](O[C@@H]4O[C@H](CO)[C@@H](O)[C@H](O)[C@H]4O)C(C)(C)[C@@H]3CC[C@]12C [F2, reference compound] |  | no particular effect on doxorubicin |  |  |  |  |  |  |  |  |  |  |  | LC50 of doxorubicin treated simultaneously with ginsenoside (MCF-7 cells [2]; ginsenoside 10 μg/mL 12 hours, then doxorubicin 0-50 μg/mL 24 hours, FIG. 2B): about 10 μg/mL |
| CC(C)=CCC[C@](C)(O)[C@H]1CC[C@]2(C)[C@@H]1[C@H](O)C[C@@H]1[C@@]3(C)CC[C@H](O)C(C)(C)[C@@H]3CC[C@]12C [PPD, protopanaxadiol] | relatively excellent anticancer activity | could enhance the anticancer activity of doxorubicin | increased | significantly increased | not affected | slightly recovered | increased the level of cytochrome-C release | 43 | damage was observed | decreased | increase |  |  | formation of cleaved-PARP and cleaved-caspase-9 according to treatment time ([3]; PPD 10 μg/mL with doxorubicin 5 μg/mL, 0-6 hours, versus doxorubicin alone, FIG. 3B): formed more rapidly |
| COc1cccc2c1C(=O)c1c(O)c3c(c(O)c1C2=O)C[C@@](O)(C(=O)CO)C[C@@H]3O[C@H]1C[C@H](N)[C@H](O)[C@H](C)O1 [doxorubicin, reference compound] |  |  |  |  |  |  |  |  |  |  |  | further increased | significantly high level of anticancer activity | CC50 (MCF-7 cells [2]; Homo sapiens, MCF7, 24 h, read-out: LC50 of doxorubicin): ~10 µg/mL (≈ 18.4 µM); levels of phosphorylated JNK, cleaved-PARP, and cleaved-caspase-9 ([3]; doxorubicin 5 μg/mL, 24 hours, FIG. 3A): increased; anticancer effect of doxorubicin with PARP or caspase-9 activity inhibitor (MCF-7 cells [4]; Z-LEHD-FMK or 3-AB pretreatment, doxorubicin 5 μg/mL 24 hours): inhibited; cells in which cytochrome-C was released, of the entire cells ([5]; doxorubicin 5 μg/mL alone (control)): 7%; level of cytochrome-C release compared to no doxorubicin treatment ([5]; doxorubicin 5 μg/mL, 4 hours, FIG. 4A): increased the level of cytochrome-C release |
| CC/C(=C(\c1ccccc1)c1ccc(OCCN(C)C)cc1)c1ccccc1 [tamoxifen] |  |  |  |  |  |  |  |  |  |  |  | no difference in anticancer activity | showed anticancer activity |  |
